Data published in patent publication US5026729A, “Lipoxygenase inhibiting compounds” (Abbott Laboratories, priority 1989, dated 1991).

Key:
[1] = target: T1, 5-Lipoxygenase (Homo sapiens, UniProt P09917); test: 5-Lipoxygenase inhibitory activity in vitro; format: biochemical
T1 sequence (P09917 1-674): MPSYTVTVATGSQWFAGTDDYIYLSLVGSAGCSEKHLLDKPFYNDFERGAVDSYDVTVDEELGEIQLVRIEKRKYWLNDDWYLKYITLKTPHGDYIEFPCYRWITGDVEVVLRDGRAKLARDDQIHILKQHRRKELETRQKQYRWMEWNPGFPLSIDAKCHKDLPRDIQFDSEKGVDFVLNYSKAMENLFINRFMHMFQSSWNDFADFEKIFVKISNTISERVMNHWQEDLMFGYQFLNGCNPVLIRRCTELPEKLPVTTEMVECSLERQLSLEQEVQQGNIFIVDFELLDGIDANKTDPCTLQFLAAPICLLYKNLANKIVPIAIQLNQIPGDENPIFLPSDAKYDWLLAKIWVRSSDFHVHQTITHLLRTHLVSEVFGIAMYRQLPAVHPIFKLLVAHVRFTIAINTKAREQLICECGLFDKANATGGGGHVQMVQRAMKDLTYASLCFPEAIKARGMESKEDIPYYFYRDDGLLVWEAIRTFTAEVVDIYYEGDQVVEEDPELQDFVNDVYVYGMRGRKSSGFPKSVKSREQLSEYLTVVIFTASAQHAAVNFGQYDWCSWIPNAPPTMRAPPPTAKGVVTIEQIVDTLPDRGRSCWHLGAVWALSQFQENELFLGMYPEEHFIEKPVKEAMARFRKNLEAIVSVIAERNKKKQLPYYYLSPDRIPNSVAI

[2] = Determination of plasma half-life after intravenous injection in rats; format: in vivo; conditions: 1.7 mL/kg solution via jugular cannula, HPLC, elimination phase; for half-life: rat, plasma, read-out: Plasma Halflife (converted)
Procedure: Rats were injected intravenously with a 1.7 mL/kg solution of test compound through a jugular cannula. Multiple blood samples were collected from the lateral tail vein using heparinized capillary tubes. Plasma was obtained by centrifugation and precipitation of proteins by 2 volumes of methanol was followed by centrifugation at 12000×G for 10 min. The supernatant was analyzed by HPLC using a C18 Adsorbosphere 7μm column and eluted with a mobile phase of varying amounts of acetonitrile and aqueous 8mM triethylamine acetate and 10mM acetohydroxamic acid with a flow rate of about 1mL/min and detection by UV spectroscopy. The quantitation of compounds was calculated using external standards. The halflife of a test compound was determined from the elimination phase of a graph of the log of the plasma concentration versus time.

IC50 [1] [nM] | half-life [2] [h] | inhibition at 0.78 µM ([1]; 0.78 μM, read-out: 5-Lipoxygenase Inhibitory Activity (percent inhibition)) [%] | Plasma Halflife [2] | inhibition at 0.39 µM ([1]; 0.39 μM, read-out: 5-Lipoxygenase Inhibitory Activity (percent inhibition)) [%] | Compound
500 | 12.4 | – | – | – | CC(=O)N(O)C(C)c1ccc(OC(C)c2ccc(F)cc2)cc1 (stereo not drawn) [Example 31, N-Hydroxy-N-(1-(4-(1-(4-fluorophenyl)ethoxy)-phenyl)ethyl]acetamide]
600 | 5.7 | – | – | – | CC(=O)N(O)C(C)c1ccc(OC(C)c2ccc(Cl)cc2)cc1 (stereo not drawn) [Example 33]
500 | 5.6 | – | – | – | CC(=O)N(O)C(C)c1ccc(OCc2ccc(F)cc2)cc1 (stereo not drawn) [C]
300 | 7.2 | – | – | – | CC(Oc1ccc(C(C)N(O)C(N)=O)cc1)c1ccc(F)cc1 (stereo not drawn) [Example 32]
200 | 5.3 | – | – | – | Cc1cc(C(C)N(O)C(N)=O)ccc1OC(C)c1ccccc1 (stereo not drawn) [Example 3, N-hydroxy-N-[1-(4-(1-phenylethoxy)-3-methylphenyl)ethyl]urea]
200 | 7.8 | – | – | – | CC(Oc1ccc(C(C)N(O)C(N)=O)cc1)c1ccc(Cl)cc1 (stereo not drawn) [Example 34, N-hydroxy-N-[1-(4-(1-(4-chlorophenyl)ethoxy)-phenyl)ethyl]urea]
50 | 1.2 | – | – | – | Cc1cc(OC(C)c2ccccc2)ccc1C(C)N(O)C(N)=O (stereo not drawn) [Example 4, N-hydroxy-N-[1-(4-(1-phenylethoxy)-2-methylphenyl)ethyl]urea]
– | 1.4 | 91 | – | – | CC(=O)N(O)C(C)c1ccc(OCc2ccc(Cl)cc2)cc1 (stereo not drawn) [E]
400 | 0.6 | – | – | – | Cc1cc(OCc2ccccc2)ccc1C(C)N(O)C(N)=O (stereo not drawn) [B]
400 | – | – | biphasic | – | CC(c1ccc(OCc2ccc(F)cc2)cc1)N(O)C(N)=O (stereo not drawn) [D]
– | 4.6 | – | – | 72 | CC(c1ccc(OCc2ccc(Cl)cc2)cc1)N(O)C(N)=O (stereo not drawn) [F]
100 | 2.7 | – | – | – | Cc1cc(C(C)N(O)C(N)=O)ccc1OCc1ccccc1 (stereo not drawn) [A]
